Measured values published in ChEMBL document CHEMBL1909046, “DrugMatrix in vitro pharmacology data”.

What was measured:
[1] = DRUGMATRIX: Calcium Channel Type L, Benzothiazepine radioligand binding (ligand: [3H] Diltiazem); format: cell membranes, Rattus norvegicus, Wistar, Brain, Membrane; details: Not Active = under 50% inhibition at 10 µM
[2] = biological target: Delta-type opioid receptor (Homo sapiens, UniProt P41143); format: cell membranes, HEK293, Membrane; details: hek293; note: in other assays of this panel Not Active means under 50% inhibition at 10 µM
Delta-type opioid receptor, sequence (P41143 whole entry): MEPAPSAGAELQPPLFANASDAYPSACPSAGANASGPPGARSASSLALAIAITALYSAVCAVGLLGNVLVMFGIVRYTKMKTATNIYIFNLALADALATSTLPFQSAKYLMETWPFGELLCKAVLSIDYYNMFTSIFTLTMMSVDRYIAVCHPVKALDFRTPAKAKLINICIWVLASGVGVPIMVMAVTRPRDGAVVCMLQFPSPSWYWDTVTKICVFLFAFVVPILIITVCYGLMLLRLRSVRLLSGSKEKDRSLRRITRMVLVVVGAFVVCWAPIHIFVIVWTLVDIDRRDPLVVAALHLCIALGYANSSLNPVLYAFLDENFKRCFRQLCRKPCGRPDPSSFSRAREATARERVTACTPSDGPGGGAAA

[3] = biological target: T1, Neuropeptide Y receptor type 2 (Homo sapiens, UniProt P49146); format: cell membranes, Membrane; details: kan-ts; note: in other assays of this panel Not Active means under 50% inhibition at 10 µM
T1 sequence (P49146 whole entry): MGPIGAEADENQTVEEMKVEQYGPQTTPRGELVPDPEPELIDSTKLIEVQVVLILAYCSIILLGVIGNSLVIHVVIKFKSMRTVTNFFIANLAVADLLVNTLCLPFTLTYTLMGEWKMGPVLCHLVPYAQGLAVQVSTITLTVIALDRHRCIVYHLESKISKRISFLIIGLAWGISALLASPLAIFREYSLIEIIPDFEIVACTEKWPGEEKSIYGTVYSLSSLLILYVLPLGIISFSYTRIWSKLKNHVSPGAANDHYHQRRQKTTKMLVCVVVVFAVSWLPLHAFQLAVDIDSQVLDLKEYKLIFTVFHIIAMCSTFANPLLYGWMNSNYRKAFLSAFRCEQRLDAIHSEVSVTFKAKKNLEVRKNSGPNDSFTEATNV

[4] = biological target: Protein kinase C alpha type (Homo sapiens, UniProt P17252); format: cell-based; details: sf9;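 note: inhibition of PKCalpha kinase activity measured in an enzyme assay with histone as the phosphorylation substrate; in other assays of this panel Not Active means under 50% inhibition at 10 µM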
Calcitonin receptor = biological target: T2, Calcitonin receptor (Homo sapiens, UniProt P30988); format: cell membranes, Membrane; details: t47d; note: in other assays of this panel Not Active means under 50% inhibition at 10 µM
T2 sequence (P30988 whole entry): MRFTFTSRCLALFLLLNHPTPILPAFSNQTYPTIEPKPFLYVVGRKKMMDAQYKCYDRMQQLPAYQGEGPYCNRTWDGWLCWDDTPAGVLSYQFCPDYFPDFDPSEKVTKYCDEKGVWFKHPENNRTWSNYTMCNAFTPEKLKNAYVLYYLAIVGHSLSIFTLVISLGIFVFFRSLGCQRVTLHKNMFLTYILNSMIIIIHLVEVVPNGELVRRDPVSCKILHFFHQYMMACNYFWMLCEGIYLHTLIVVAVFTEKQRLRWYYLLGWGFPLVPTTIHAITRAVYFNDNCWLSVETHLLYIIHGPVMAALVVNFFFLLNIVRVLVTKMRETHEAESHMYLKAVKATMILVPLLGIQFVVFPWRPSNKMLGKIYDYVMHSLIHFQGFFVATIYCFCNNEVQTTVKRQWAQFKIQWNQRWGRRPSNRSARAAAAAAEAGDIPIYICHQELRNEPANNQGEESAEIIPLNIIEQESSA

[5] = biological target: Aldo-keto reductase family 1 member B1 (Rattus norvegicus, UniProt P07943); assay: biochemical; format: tissue-based, Lens of camera-type eye
[6] = biological target: Epidermal growth factor receptor (Homo sapiens, UniProt P00533); assay: DRUGMATRIX: Protein Tyrosine Kinase, EGF Receptor enzyme inhibition (substrate: Poly(Glu:Tyr)); format: cell-based, Insect cells; details: insect cells; Not Active = under 50% inhibition at 10 µM

Compound | IC50 [1] | Ki [1] | IC50 [2] | IC50 [3] | IC50 [4] | IC50 (Calcitonin receptor) | IC50 [5] | IC50 [6] | IC50 ([5]; read-out: IC50) | Ki [2] | Ki [3] | Ki [4] | Ki (Calcitonin receptor) | Ki [5] | Ki [6]
Cc1cccc(N(C)C(=S)Oc2ccc3ccccc3c2)c1 [TOLNAFTATE] | Not Active | Not Active | Not Active | Not Active | Not Active | Not Active | Not Active | Not Active | – | – | – | – | – | – | –
NC[C@H]1CC[C@H](C(=O)O)CC1 [TRANEXAMIC ACID] | Not Active | Not Active | Not Active | Not Active | Not Active | Not Active | Not Active | Not Active | – | – | – | – | – | – | –
CC1(C)O[C@@H]2C[C@H]3[C@@H]4CCC5=CC(=O)C=C[C@]5(C)[C@@]4(F)[C@@H](O)C[C@]3(C)[C@]2(C(=O)CO)O1 [TRIAMCINOLONE ACETONIDE] | Not Active | Not Active | Not Active | Not Active | Not Active | Not Active | Not Active | Not Active | – | – | – | – | – | – | –
NS(=O)(=O)c1cc2c(cc1Cl)NC(C(Cl)Cl)NS2(=O)=O (stereo not given) [TRICHLORMETHIAZIDE] | Not Active | Not Active | Not Active | Not Active | Not Active | Not Active | Not Active | Not Active | – | – | – | – | – | – | –
Cc1c(C)c2c(c(C)c1O)CCC(C)(COc1ccc(CC3SC(=O)NC3=O)cc1)O2 (stereo not given) [TROGLITAZONE] | Not Active | Not Active | Not Active | Not Active | Not Active | Not Active | – | Not Active | 2040 nM | – | – | – | – | – | –
CC[C@]1(O)C[C@H]2CN(CCc3c([nH]c4ccccc34)[C@@](C(=O)OC)(c3cc4c(cc3OC)N(C=O)[C@H]3[C@@](O)(C(=O)OC)[C@H](OC(C)=O)[C@]5(CC)C=CCN6CC[C@]43[C@@H]65)C2)C1 [VINCRISTINE] | Not Active | Not Active | Not Active | Not Active | Not Active | Not Active | Not Active | Not Active | – | – | – | – | – | – | –
CCCOc1ccccc1-c1nc2nn[nH]c2c(=O)[nH]1 [ZAPRINAST] | Not Active | Not Active | Not Active | Not Active | Not Active | Not Active | Not Active | Not Active | – | – | – | – | – | – | –
SODIUM NITROPRUSSIDE | Not Active | Not Active | Not Active | Not Active | Not Active | Not Active | Not Active | Not Active | – | Not Active | Not Active | Not Active | Not Active | Not Active | Not Active
